The experiment addresses T1, TstT (LVIS_0852) (Levilactobacillus brevis, UniProt Q03S28).
T1 sequence (Q03S28 1-120): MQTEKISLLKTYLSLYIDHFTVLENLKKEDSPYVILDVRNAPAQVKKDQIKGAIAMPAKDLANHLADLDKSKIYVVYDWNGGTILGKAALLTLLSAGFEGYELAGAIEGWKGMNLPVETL
It counts as biochemical.

The record followed here is paper PMC4038355 (Molecular microbiology, 2014).

Take `O=S(O)O` [sulfite]: the “% decrease at 100 μM” value was determined as 40%.
